# Measurements: paper PMC9327782, “Benzoxazole derivatives as new VEGFR-2 inhibitors and apoptosis inducers: design, synthesis, in silico studies, and antiproliferative evaluation” (Journal of Enzyme Inhibition and Medicinal Chemistry, 2022)
# Where two headings read alike, the source gives them in different places.
# Tests used:
# HepG2 cell line = assay: In vitro anti-proliferative MTT assay, HepG2; type: cell-based, human
# Source text: (§1) The cytotoxicity results were obtained as median growth inhibitory concentration (IC50).
# (§2) MTT assay protocol. This method was applied in accordance with the comprehensive description in Supplementary data. […]
# (§3) 5 Raw data of cytotoxity and VEGFR -2 assay […]
# (§4) Experimental of biological testing
# (§5) 1. In vitro anti-proliferative activity
# (§6) MTT assay protocol was applied to assess the anti-proliferative activity of the synthesized compounds. Two human cancer cell lines (MCF-7 and HepG-2) and one normal cell line (WI-38) were used in this test. At first, the cell lines were cultured in RPMI -1640 medium with 10% fetal bovine serum. Antibiotics (100 units/ml penicillin and100 µg/ml streptomycin ) were added at 37 °C in a 5% CO2 incubator. The cell lines were seeded in a 96-well plate at a density of 1.0 x 10^4 cells / well at 37 °C for 24 h under 5% CO2. After incubation, the cells were treated with different […]
# (§7) concentration of the synthesized compounds and incubated for 24 h. After 24 h of drug treatment, 20 µl of MTT solution at 5mg/ml was added and incubated for 4 h. Dimethyl sulfoxide (DMSO) in volume of 100 µl was added into each well to dissolve the purple formazan formed. The colorimetric assay was measured and recorded at absorbance of 570 nm using a plate reader (EXL 800, USA). The relative cell viability in percentage was calculated as (A570 of treated samples/A570 of untreated sample) X 100. […]
# MCF-7 cell line = assay: In vitro anti-proliferative MTT assay, MCF-7; type: cell-based, human
# Source text: as §1, §2, §3, §4, §5, §6, §7
# VEGFR-2 = molecular target: T1, VEGFR-2 (Homo sapiens, UniProt P35968); assay: In vitro VEGFR-2 kinase assay (ELISA kit); type: biochemical; settings: for IC50: ELISA kit; for HillSlope best-fit value, VEGFR-2 / LogIC50 best-fit value, VEGFR-2: supplement raw data, curve fit
# T1 construct: purchased
# T1 sequence (P35968 20-1356): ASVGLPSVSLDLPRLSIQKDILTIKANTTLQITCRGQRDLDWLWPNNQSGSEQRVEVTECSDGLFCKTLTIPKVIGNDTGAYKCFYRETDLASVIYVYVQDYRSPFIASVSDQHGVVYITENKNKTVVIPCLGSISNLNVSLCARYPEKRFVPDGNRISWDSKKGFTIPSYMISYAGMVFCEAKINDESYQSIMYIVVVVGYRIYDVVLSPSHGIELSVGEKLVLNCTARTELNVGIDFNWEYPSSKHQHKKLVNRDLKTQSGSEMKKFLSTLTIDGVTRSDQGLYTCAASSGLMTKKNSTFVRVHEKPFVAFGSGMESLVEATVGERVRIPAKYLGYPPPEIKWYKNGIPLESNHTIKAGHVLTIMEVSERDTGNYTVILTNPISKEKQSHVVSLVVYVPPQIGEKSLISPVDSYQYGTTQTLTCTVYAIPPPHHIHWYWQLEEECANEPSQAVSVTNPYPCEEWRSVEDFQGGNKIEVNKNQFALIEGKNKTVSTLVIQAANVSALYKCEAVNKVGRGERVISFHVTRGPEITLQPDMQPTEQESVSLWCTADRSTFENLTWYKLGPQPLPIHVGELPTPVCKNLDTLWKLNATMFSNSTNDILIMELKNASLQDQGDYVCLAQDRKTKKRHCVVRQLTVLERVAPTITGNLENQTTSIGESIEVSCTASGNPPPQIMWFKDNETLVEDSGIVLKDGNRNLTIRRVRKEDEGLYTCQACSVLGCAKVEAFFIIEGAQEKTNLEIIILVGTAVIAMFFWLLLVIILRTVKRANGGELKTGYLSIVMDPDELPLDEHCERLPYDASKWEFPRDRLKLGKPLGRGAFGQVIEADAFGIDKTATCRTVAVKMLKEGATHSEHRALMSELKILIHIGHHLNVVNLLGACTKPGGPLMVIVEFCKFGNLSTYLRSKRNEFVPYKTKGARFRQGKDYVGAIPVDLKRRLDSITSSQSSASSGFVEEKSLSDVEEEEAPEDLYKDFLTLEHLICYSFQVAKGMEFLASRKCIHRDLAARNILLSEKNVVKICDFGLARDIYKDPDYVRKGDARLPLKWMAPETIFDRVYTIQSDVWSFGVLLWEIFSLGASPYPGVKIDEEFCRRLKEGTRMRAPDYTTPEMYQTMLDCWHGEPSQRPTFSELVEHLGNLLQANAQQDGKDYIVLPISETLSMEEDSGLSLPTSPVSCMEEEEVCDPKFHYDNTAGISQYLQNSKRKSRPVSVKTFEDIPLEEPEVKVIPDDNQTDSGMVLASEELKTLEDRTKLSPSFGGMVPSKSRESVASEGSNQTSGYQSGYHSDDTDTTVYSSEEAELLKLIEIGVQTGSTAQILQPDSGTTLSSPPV
# Procedure: The assay was applied by ELISA kits in accordance with the comprehensive description in[18]^,[33] as described in Supplementary data. […]
# 2. In vitro VEGFR-2 kinase assay
# All the synthesized compounds were tested for its inhibitory activity against VEGFR-2. Human VEGFR-2 ELISA kit (Enzyme-Linked Immunosorbent Assay) was utilized in this test. At first, specific antibody for VEGFR-2 was seeded on a 96-well plate and 100 μL of the standard solution or the tested compound was added, all were incubated at room temperature for 2.5 h. Then washed, 100 μL of the prepared biotin antibody was added, then incubated at room temperature for additional 1 h. and washed. Then, 100 μL of streptavidin solution was added and incubated for 45 min. at room temperature. Washed again, 100 μL of TMB Substrate reagent was added and incubated for 30 min. at room temperature. 50 μL of the stop solution was added, then read at 450 […]
# nm immediately. […]
# WI-38 cell line = assay: In vitro cytotoxicity against normal cell line (MTT); type: cell-based, human; parameters: LogIC50 best-fit value, WI-38: unit not given here; settings: for IC50: WI-38, normal human lung cell line, MTT; for HillSlope best-fit value, WI-38 / LogIC50 best-fit value, WI-38: supplement raw data, dose-response curve fit
# Source text: […]. Such values were very high in comparison to the corresponding values on cancer cell lines, which reflect high safety profile of the tested candidates towards normal cell lines.
# as §2, §3, §4, §5, §6, §7
# [1] = Homo sapiens, HepG2, 24 h, MTT, 24 h treatment, mean of three experiments, read-out: In vitro IC50 HepG2
# [2] = Homo sapiens, HepG2, supplement raw data, dose-response curve fit, read-out: LogIC50 best-fit value, HepG2 (converted)
# [3] = Homo sapiens, MCF7, 24 h, MTT, 24 h treatment, mean of three experiments, read-out: In vitro IC50 MCF-7
# [4] = Homo sapiens, MCF7, supplement raw data, dose-response curve fit, read-out: LogIC50 best-fit value, MCF-7 (converted)
# [5] = Homo sapiens, HepG2, supplement raw data, dose-response curve fit, read-out: IC50 best-fit value, HepG2
SMILES,IC50 (HepG2 cell line; [1]) [µM],IC50 (HepG2 cell line; [2]) [µM],IC50 (MCF-7 cell line; [3]) [µM],IC50 (MCF-7 cell line; [4]) [µM],IC50 (VEGFR-2) [µM],"HillSlope best-fit value, VEGFR-2 (VEGFR-2)","LogIC50 best-fit value, VEGFR-2 (VEGFR-2)","IC50 (HepG2 cell line; MTT, 24 h treatment, mean of three experiments, read-out: In vitro IC50 HepG2) [µM]","IC50 (MCF-7 cell line; MTT, 24 h treatment, mean of three experiments, read-out: In vitro IC50 MCF-7) [µM]",IC50 (HepG2 cell line; [5]) [µM],"IC50 (MCF-7 cell line; Homo sapiens, MCF7, supplement raw data, dose-response curve fit, read-out: IC50 best-fit value, MCF-7) [µM]",IC50 (WI-38 cell line) [µM],"HillSlope best-fit value, WI-38 (WI-38 cell line)","LogIC50 best-fit value, WI-38 (WI-38 cell line)"
"COc1cccc(NC(=O)c2ccc(NC(=O)CSc3nc4cc(Cl)ccc4o3)cc2)c1 [Compound 12h, 4–(2-((5-Chlorobenzo[d]oxazol-2-yl)thio)acetamido)-N-(3-methoxyphenyl)benzamide]",102 ± 8.5,102,85.6 ± 8.2,85.7,,,,,,,,,,
"CC(C)(C)NC(=O)c1ccc(NC(=O)CSc2nc3cc(Cl)ccc3o2)cc1 [Compound 12e, N-(Tert-butyl)-4–(2-((5-chlorobenzo[d]oxazol-2-yl)thio)acetamido)benzamide]",71.6 ± 6.7,71.6,62.3 ± 5.8,62.2,,,,,,,,,,
"O=C(CSc1nc2cc(Cl)ccc2o1)Nc1ccc(C(=O)NNC(=O)c2cccc(Cl)c2)cc1 [Compound 13b, 2-((5-Chlorobenzo[d]oxazol-2-yl)thio)-N-(4–(2-(3-chlorobenzoyl)hydrazine-1-carbonyl)-phenyl)acetamide]",42.1 ± 3.8,42.1,26.3 ± 2.2,26.3,,,,,,,,,,
"Cc1ccc2oc(SCC(=O)Nc3ccc(C(=O)NC4CCCC4)cc3)nc2c1 [Compound 12c, N-Cyclopentyl-4–(2-((5-methylbenzo[d]oxazol-2-yl)thio)acetamido)benzamide]",74.3 ± 6.8,74.3,36.7 ± 3.3,36.7,,,,,,,,,,
"O=C(CSc1nc2ccccc2o1)Nc1ccc(C(=O)NNC(=O)c2cccc(Cl)c2)cc1 [Compound 13a, 2-(Benzo[d]oxazol-2-ylthio)-N-(4–(2-(3-chlorobenzoyl)hydrazine-1-carbonyl)phenyl)-acetamide]",,25.5,,32.4,0.268,-0.5089,2.428 Log (nM),,,,,,,
"COc1cccc(NC(=O)c2ccc(NC(=O)CSc3nc4cc(C)ccc4o3)cc2)c1 [Compound 12i, N-(3-Methoxyphenyl)-4–(2-((5-methylbenzo[d]oxazol-2-yl)thio)acetamido)benzamide]",27.3 ± 2.2,27.3,28 ± 2.1,28,0.155,-0.3818,2.190 Log (nM),,,,,76.8,-0.4944,1.885
"O=C(CSc1nc2cc(Cl)ccc2o1)Nc1ccc(C(=O)NC2CCCC2)cc1 [Compound 12b, 4–(2-((5-Chlorobenzo[d]oxazol-2-yl)thio)acetamido)-N-cyclopentylbenzamide]",64.2 ± 6.1,64.1,77 ± 7.3,77.1,,,,,,,,,,
"O=C(CSc1nc2ccccc2o1)Nc1ccc(C(=O)NC2CCCC2)cc1 [Compound 12a, 4–(2-(Benzo[d]oxazol-2-ylthio)acetamido)-N-cyclopentylbenzamide]",38.8 ± 3.2,38.8,33.3 ± 2.9,33.3,,,,,,,,,,

# More lines, main results first:
IC50 (HepG2 cell line; [1]) [µM],IC50 (HepG2 cell line; [2]) [µM],IC50 (MCF-7 cell line; [3]) [µM],IC50 (MCF-7 cell line; [4]) [µM],IC50 (VEGFR-2) [µM],"HillSlope best-fit value, VEGFR-2 (VEGFR-2)","LogIC50 best-fit value, VEGFR-2 (VEGFR-2)","IC50 (HepG2 cell line; MTT, 24 h treatment, mean of three experiments, read-out: In vitro IC50 HepG2) [µM]","IC50 (MCF-7 cell line; MTT, 24 h treatment, mean of three experiments, read-out: In vitro IC50 MCF-7) [µM]",IC50 (HepG2 cell line; [5]) [µM],"IC50 (MCF-7 cell line; Homo sapiens, MCF7, supplement raw data, dose-response curve fit, read-out: IC50 best-fit value, MCF-7) [µM]",SMILES,IC50 (WI-38 cell line) [µM],"HillSlope best-fit value, WI-38 (WI-38 cell line)","LogIC50 best-fit value, WI-38 (WI-38 cell line)"
23.6 ± 2.1,23.6,44.1 ± 3.8,44.1,0.195,-0.4166,2.289 Log (nM),,,,,"CC(C)(C)NC(=O)c1ccc(NC(=O)CSc2nc3ccccc3o2)cc1 [Compound 12d, 4–(2-(Benzo[d]oxazol-2-ylthio)acetamido)-N-(tert-butyl)benzamide]",99.4,-0.3751,1.997
33.6,50.9,50.9,33.6,,,,50.9 ± 4.6,33.6 ± 2.8,,,"O=C(CSc1nc2ccccc2o1)Nc1ccc(C(=O)Nc2cccc(Cl)c2)cc1 [Compound 12j, 4–(2-(Benzo[d]oxazol-2-ylthio)acetamido)-N-(3-chlorophenyl)benzamide]",,,
36.7 ± 2.9,36.6,53 ± 5.1,53,,,,,,,,"COc1cccc(NC(=O)c2ccc(NC(=O)CSc3nc4ccccc4o3)cc2)c1 [Compound 12g, 4–(2-(Benzo[d]oxazol-2-ylthio)acetamido)-N-(3-methoxyphenyl)benzamide]",,,
5.57 ± 0.4,5.57,6.46 ± 0.3,6.46,,,,,,5.57,6.46,"CNC(=O)c1cc(Oc2ccc(NC(=O)Nc3ccc(Cl)c(C(F)(F)F)c3)cc2)ccn1 [Sorafenib, sorafenib, reference compound]",22.1,-0.4247,1.344
28.4 ± 2.5,28.4,86.6 ± 7.8,86.7,,,,,,,,"O=C(CSc1nc2cc(Cl)ccc2o1)Nc1ccc(C(=O)Nc2cccc(Cl)c2)cc1 [Compound 12k, 4–(2-((5-Chlorobenzo[d]oxazol-2-yl)thio)acetamido)-N-(3-chlorophenyl)benzamide]",,,
37 ± 3.4,37,22.5 ± 1.8,22.5,0.265,-0.3283,2.423 Log (nM),,,,,"Cc1ccc2oc(SCC(=O)Nc3ccc(C(=O)NC(C)(C)C)cc3)nc2c1 [Compound 12f, N-(Tert-butyl)-4–(2-((5-methylbenzo[d]oxazol-2-yl)thio)acetamido)benzamide]",,,
24.2 ± 2.1,24.4,53.1 ± 3.7,53.1,,,,,,24.4,,"Cc1ccc2oc(SCC(=O)Nc3ccc(C(=O)NNC(=O)c4cccc(Cl)c4)cc3)nc2c1 [Compound 13c, N-(4–(2-(3-Chlorobenzoyl)hydrazine-1-carbonyl)phenyl)-2-((5-methylbenzo[d]oxazol-2-yl)thio)acetamide]",,,
